This is an account of results in paper PMC6175577, “BRCT domains of the DNA damage checkpoint proteins TOPBP1/Rad4 display distinct specificities for phosphopeptide ligands” (eLife, 2018).

One assay addresses T1, Rad4-BRCT1,2 WT (Schizosaccharomyces pombe, UniProt P32372).
T1 construct: made in house; host or cells: E. coli BL21(DE3)
T1 sequence (P32372 1-186 limits assumed): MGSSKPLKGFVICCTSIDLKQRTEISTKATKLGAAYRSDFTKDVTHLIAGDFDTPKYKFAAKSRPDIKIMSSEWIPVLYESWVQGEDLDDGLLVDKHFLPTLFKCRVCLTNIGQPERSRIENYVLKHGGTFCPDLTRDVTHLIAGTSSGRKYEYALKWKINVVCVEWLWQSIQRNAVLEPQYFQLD
Briefly: Fluorescence polarisation titration, Rad4-BRCT1,2 wild-type. Conditions: FP, fluorescein-peptide 200 nM, HEPES pH 7.5, room temperature, one-site fit, 4 replicates; ND = low-affinity non-specific response, no binding curve. The procedure:
(§1) Fluorescein-labelled peptides (Peptide Protein Research Ltd, Fareham, UK) at a concentration of 200 nM, were incubated at room temperature with increasing concentrations of recombinant protein in 25 mM HEPES pH 7.5, 150 mM NaCl, 1 mM EDTA, 0.25 mM TCEP, 0.02% (v/v) Tween-20. Four parallel replicates of each titration were dispensed into a black 96-well polypropylene plate (VWR, Lutterworth, UK) for measurement. Fluorescence polarisation was measured in a CLARIOstar multimode microplate reader (BMG Labtech, Aylesbury, UK). Binding curves represent the mean of 4 independent experiments, with error bars indicating one standard deviation. All data were fitted by non-linear regression, to a one site-specific binding model in Prism seven for Mac OS X (v 7.0d, GraphPad Software) in order to calculate the reported dissociation constants (Kd). Low-affinity non-specific responses for which a binding curve could not be determined are marked as ND.
A general note: In fluorescence polarisation assays a small probe gives low polarisation when free and higher when bound to something large.

The target in the next assay is T2, Rad4-BRCT1,2 K151E (Schizosaccharomyces pombe, UniProt P32372, K151E).
T2 construct: made in house; host or cells: E. coli BL21(DE3)
T2 sequence (P32372 1-186 K151E limits assumed): T1 sequence (P32372 1-186 limits assumed) with K151E
Briefly: Fluorescence polarisation titration, Rad4-BRCT1,2 K151E (BRCT2 mutant). As to conditions: FP, fluorescein-peptide 200 nM, HEPES pH 7.5, room temperature; ND = low-affinity non-specific response, no binding curve. The procedure: as §1

A further assay has as its target T3, Rad4-BRCT3,4 (Schizosaccharomyces pombe, UniProt P32372).
T3 construct: made in house; host or cells: E. coli BL21(DE3)
T3 sequence (P32372 291-494 limits assumed): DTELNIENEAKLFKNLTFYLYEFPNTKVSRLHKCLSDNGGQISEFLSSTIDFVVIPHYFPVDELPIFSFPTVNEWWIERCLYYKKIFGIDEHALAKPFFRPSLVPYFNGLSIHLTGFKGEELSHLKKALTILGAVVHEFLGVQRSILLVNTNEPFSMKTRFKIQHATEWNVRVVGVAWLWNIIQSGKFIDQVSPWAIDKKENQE
Briefly: Fluorescence polarisation titration, Rad4-BRCT3,4. As to conditions: FP, fluorescein-peptide 200 nM, HEPES pH 7.5, room temperature; ND = low-affinity non-specific response, no binding curve. The procedure: as §1

A further assay deals with T4, Rad4-BRCT1,2 K56E (Schizosaccharomyces pombe, UniProt P32372, K56E).
T4 construct: made in house; host or cells: E. coli BL21(DE3)
T4 sequence (P32372 1-186 K56E limits assumed): T1 sequence (P32372 1-186 limits assumed) with K56E
Briefly: Fluorescence polarisation titration, Rad4-BRCT1,2 K56E (BRCT1 mutant). The class given is binding. Conditions: FP, fluorescein-peptide 200 nM, HEPES pH 7.5, room temperature, one-site fit, 4 replicates. On the procedure: as §1

The target of another assay is T5, TOPBP1-BRCT4,5 (Homo sapiens, UniProt Q92547).
T5 construct: made in house; host or cells: E. coli BL21(DE3)
T5 sequence (Q92547 549-746 limits assumed): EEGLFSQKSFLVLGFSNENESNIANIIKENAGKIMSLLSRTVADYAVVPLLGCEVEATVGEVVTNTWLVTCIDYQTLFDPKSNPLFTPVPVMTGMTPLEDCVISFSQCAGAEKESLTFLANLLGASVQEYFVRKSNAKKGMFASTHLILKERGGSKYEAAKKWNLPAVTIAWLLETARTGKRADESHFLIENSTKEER
Briefly: Fluorescence polarisation titration, TOPBP1-BRCT4,5. The class given is binding. Conditions: FP, fluorescein-peptide 200 nM, HEPES pH 7.5, room temperature, one-site fit, 4 replicates; ND = low-affinity non-specific response, no binding curve. On the procedure: as §1

The target of the next assay is T6, TOPBP1-BRCT0,1,2 K250E (Homo sapiens, UniProt Q92547, K250E).
T6 construct: made in house; host or cells: E. coli BL21(DE3)
T6 sequence (Q92547 1-290 K250E limits assumed): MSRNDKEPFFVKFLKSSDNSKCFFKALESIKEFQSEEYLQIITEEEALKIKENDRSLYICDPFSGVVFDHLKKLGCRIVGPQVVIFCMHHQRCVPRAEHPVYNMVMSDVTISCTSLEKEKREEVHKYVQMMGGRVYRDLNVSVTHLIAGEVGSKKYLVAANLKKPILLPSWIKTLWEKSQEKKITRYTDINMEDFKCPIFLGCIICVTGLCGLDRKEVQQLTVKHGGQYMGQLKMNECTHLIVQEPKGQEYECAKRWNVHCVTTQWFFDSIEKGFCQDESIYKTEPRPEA
Briefly: Fluorescence polarisation titration, TOPBP1-BRCT0,1,2 K250E (BRCT2 mutant). In kind it is binding. On the procedure:
as §1

A further assay has as its target T7, TOPBP1-BRCT7,8 (Homo sapiens, UniProt Q92547).
T7 construct: made in house; host or cells: E. coli BL21(DE3)
Briefly: Fluorescence polarisation titration, TOPBP1-BRCT7,8. In kind it is binding. As to conditions: FP, fluorescein-peptide 200 nM, HEPES pH 7.5, room temperature, one-site fit; ND = low-affinity non-specific response, no binding curve. The procedure: as §1

A further assay concerns the target T8, TOPBP1-BRCT0,1,2 K155E (Homo sapiens, UniProt Q92547, K155E).
T8 construct: made in house; host or cells: E. coli BL21(DE3)
Briefly: Fluorescence polarisation titration, TOPBP1-BRCT0,1,2 K155E (BRCT1 mutant). The class given is binding. On the procedure: as §1

In the next assay the target is T9, TOPBP1-BRCT0,1,2 WT (Homo sapiens, UniProt Q92547).
T9 construct: made in house; host or cells: E. coli BL21(DE3)
T9 sequence (Q92547 1-290 limits assumed): as the sequence (Q92547 1-290 K250E limits assumed) above, with E250K counted along it
Briefly: Fluorescence polarisation titration, TOPBP1-BRCT0,1,2 wild-type. In kind it is binding. The procedure: as §1

Where [1] appears, read: FP, fluorescein-peptide 200 nM, HEPES pH 7.5, room temperature, one-site fit, 4 replicates.
Where [2] appears, read: FP, fluorescein-peptide 200 nM, HEPES pH 7.5, room temperature, one-site fit, 4 replicates, read-out: Kd.

Where a chain is given by its changes, count along the chain named. Like-named read-outs stand apart in the source and are kept apart here. Where a SMILES comes first, the peptide text is derived from it. [ ]: non-standard residue; d: D form. The star is where a group is joined. 5FAM = O=C1OC2(c3ccc(O)cc3Oc3cc(O)ccc32)c2ccc(C(=O)*)cc21; pT = C[C@@H](OP(=O)(O)O)[C@H](N)C(=O)O; pS = N[C@@H](COP(=O)(O)O)C(=O)O

The Kd is a measure of binding affinity in units of concentration.

T8 sequence (Q92547 1-290 K155E limits assumed): as the sequence (Q92547 1-290 K250E limits assumed) above, with K155E, E250K counted along it
T7 sequence (Q92547 1264-1493 limits assumed): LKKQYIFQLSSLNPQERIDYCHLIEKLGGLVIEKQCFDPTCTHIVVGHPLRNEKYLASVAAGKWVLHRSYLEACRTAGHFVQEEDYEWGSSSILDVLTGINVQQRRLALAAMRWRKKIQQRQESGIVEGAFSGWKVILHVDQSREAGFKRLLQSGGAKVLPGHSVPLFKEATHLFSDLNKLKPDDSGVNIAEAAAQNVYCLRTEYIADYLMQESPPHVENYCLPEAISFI

Regarding `CSCC[C@H](NC(=O)[C@@H](NC(=O)CNC(=O)CNC(=O)[C@H](Cc1ccc(O)cc1)NC(=O)CNC(=O)c1ccc2c(c1)C(=O)OC21c2ccc(O)cc2Oc2cc(O)ccc21)C(C)C)C(=O)N[C@H](C(=O)N[C@H](C(=O)N1CCC[C@H]1C(=O)N[C@@H](CC(N)=O)C(=O)N[C@H](C(=O)N1CCC[C@H]1C(=O)N[C@@H](CCC(N)=O)C(=O)N[C@@H](CCCCN)C(=O)N1CCC[C@H]1C(=O)N[C@@H](CC(N)=O)C(=O)N[C@@H](CC(C)C)C(=O)N[C@@H](CCC(N)=O)C(=O)O)[C@@H](C)OP(=O)(O)O)C(C)C)[C@@H](C)O` [Mdb1 pT113] (5FAM-GYGGVMTVPN[pT]PQKPNLQ-OH), the dissociation constant (Kd) entry is recorded as “low micromolar affinity” at Rad4-BRCT1,2 WT, “substantially reduced compared to wild-type” on Rad4-BRCT1,2 K151E, “no binding” at Rad4-BRCT3,4 and “largely unaffected” at Rad4-BRCT1,2 K56E.
Take `CC[C@H](C)[C@H](NC(=O)CNC(=O)[C@H](Cc1ccc(O)cc1)NC(=O)[C@H](CCCCN)NC(=O)[C@H](CC(=O)O)NC(=O)[C@H](CCC(=O)O)NC(=O)[C@@H]1CCCN1C(=O)[C@@H](NC(=O)[C@H](CC(=O)O)NC(=O)[C@H](CCCCN)NC(=O)[C@@H](NC(=O)[C@H](CC(C)C)NC(=O)[C@@H](NC(=O)[C@@H]1CCCN1C(=O)CNC(=O)CNC(=O)[C@H](Cc1ccc(O)cc1)NC(=O)CN)C(C)C)C(C)C)[C@@H](C)OP(=O)(O)O)C(=O)O` [RHNO1 pT202] (H-GYGGPVLVKD[pT]PEDKYGI-OH; N-terminus and C-terminus assumed): the Kd result at TOPBP1-BRCT4,5 was “did not show any measurable binding”; on TOPBP1-BRCT0,1,2 K250E (setting [1]), “comparable affinity to the wild-type”; on TOPBP1-BRCT0,1,2 K250E (setting [2]), less than 200 nM; at TOPBP1-BRCT7,8 it was “did not show any measurable binding”; on TOPBP1-BRCT0,1,2 K155E (FP, fluorescein-peptide 200 nM, HEPES pH 7.5, room temperature, one-site fit, 4 replicates, ND = low-affinity non-specific response, no binding curve), “no binding was observed”; on TOPBP1-BRCT0,1,2 WT (setting [1]), “sub-micromolar affinity”. For the same molecule, the Kd on TOPBP1-BRCT0,1,2 WT (setting [2]) was less than 200 nM. In addition, at TOPBP1-BRCT0,1,2 WT (RHNO1-pT202 versus RAD9-pS387, binding to TOPBP1 BRCT1), the “Fold tighter binding than RAD9-pS387” value is given as ~ 10 fold.
Regarding `CC[C@H](C)[C@H](NC(=O)[C@H](CCC(N)=O)NC(=O)[C@H](CCCCN)NC(=O)[C@H](Cc1c[nH]cn1)NC(=O)[C@@H](NC(=O)[C@@H]1CCCN1C(=O)[C@@H](NC(=O)[C@H](CCC(=O)O)NC(=O)[C@H](C)NC(=O)[C@@H](NC(=O)[C@H](CO)NC(=O)[C@H](CCCCN)NC(=O)[C@@H](NC(=O)[C@H](CC(C)C)NC(=O)CNC(=O)[C@H](Cc1ccc(O)cc1)NC(=O)CNC(=O)c1ccc2c(c1)C(=O)OC21c2ccc(O)cc2Oc2cc(O)ccc21)[C@@H](C)O)C(C)C)[C@@H](C)OP(=O)(O)O)C(C)C)C(=O)N[C@@H](CO)C(=O)O` [Treslin pT969] (5FAM-GYGLTKSVAE[pT]PVHKQIS-OH), the Kd worked out at 1000 ± 60 nM on TOPBP1-BRCT0,1,2 K155E (read-out: Kd) and 940 ± 60 nM at TOPBP1-BRCT0,1,2 WT (read-out: Kd).
On to `CC[C@H](C)[C@H](NC(=O)[C@H](CCC(=O)O)NC(=O)[C@H](CC(=O)O)NC(=O)CNC(=O)[C@H](CCCCN)NC(=O)[C@H](CCC(=O)O)NC(=O)[C@@H]1CCCN1C(=O)[C@H](COP(=O)(O)O)NC(=O)[C@H](CCC(=O)O)NC(=O)[C@H](CCC(=O)O)NC(=O)[C@@H](NC(=O)[C@@H](NC(=O)CNC(=O)[C@@H](NC(=O)[C@H](CC(=O)O)NC(=O)CNC(=O)[C@H](Cc1ccc(O)cc1)NC(=O)CNC(=O)c1ccc2c(c1)C(=O)OC21c2ccc(O)cc2Oc2cc(O)ccc21)[C@@H](C)CC)C(C)C)C(C)C)C(=O)O` [Treslin pT1001] (5FAM-GYGDIGVVEE[pS]PEKGDEI-OH), for which the Kd at TOPBP1-BRCT0,1,2 K250E (read-out: Kd) was found to be 350 ± 130 nM; at TOPBP1-BRCT0,1,2 K155E (read-out: Kd) it was 730 ± 40 nM; at TOPBP1-BRCT0,1,2 WT (read-out: Kd), 600 ± 30 nM.
